Data on two compounds can be found in patent US10761087B2, “Choroidal neovascularization suppressor or drusen formation suppressor, and method for assessing or screening for same” (Link Genomics, Inc., priority 2015, dated 2020).

One data set concerns mouse. Description: In vivo model test for drusen suppression (TNF-a induced drusen-like structure in retinal region). The conditions noted are these: oral, 14 days; oxaprozin 600 mg/kg/day, epalrestat 600 mg/kg/day, zaltoprofen 40 mg/kg/day. As to the method: In the vicinity of the retina in the posterior segment of eyeball of mouse, 400 ng of Recombinant Mouse TNF-a (R&D Systems, # 410-MT) was administered. After two weeks from administration, an eye ball was extracted, and a formalin-fixed, paraffin-embedded block was prepared. The tissue sample was deparaffinized by treating three times with xylene for 5 minutes each, twice with 100% ethanol for 1 minute each, with 90% ethanol for 1 minute, with 80% ethanol for 1 minute, with 70% ethanol for 1 minute, and with water for 5 minutes. Staining was conducted with a Mayer' s hematoxylin solution for 4 minutes, and with an eosin liquid for 1 minute. After treating for 5 minutes in flowing water, treatments were conducted with 70% ethanol for 1 minute, with 80% ethanol for 1 minute, with 90% ethanol for 1 minute, twice with 100% ethanol for 1 minute each, and three times with xylene for 5 minutes each, followed by mounting with Marinol. After drying for 15 minutes or more at room temperature, the untreated RPE cells, and the RPE cells in which inflammation is induced were observed. An eyeball tissue segment was prepared from a block. After incubation for 30 minutes in a gas-phase incubator at 56° C., the tissue sample was deparaffinized by treating three times with xylene for 5 minutes each, twice with 100% ethanol for 1 minute each, with 90% ethanol for 1 minute, with 80% ethanol for 1 minute, with 70% ethanol for 1 minute, and with water for 5 minutes. After removing a melanin pigment in tissues using Delicate Melanin Bleach Kit for Special Stains and IHC (Polysciences, # 24909-1) according to the manufacturer's protocol, a microwave treatment using a citrate buffer pH 6.0 was conducted for 10 minutes to activate the antigen. After standing still for 30 minutes at room temperature, treatments were conducted with PBS for 5 minutes, with a 3% hydrogen peroxide/PBS solution for 5 minutes, and with PBS for 5 minutes to inactivate an endogenous peroxidase. The sample was stood still in a 3% BSA/PBS solution for 30 minutes at room temperature to block the tissues. As primary antibodies, an anti-E-Cadherin antibody (BD Biosciences, # 610182) that was 500-fold diluted with a 1.5% BSA/PBS solution, and an anti-Cytokeratin antibody (Sigma, # C2931) that was 1000-fold diluted, and an anti-Fibronectin antibody (abcam, # 45688) that was 1000-fold diluted, and an anti-Vimentin antibody (Cell signaling Technology, # 5741) that was 100-fold diluted were added in an amount of 200 μL per one tissue, and caused to react with the tissues for 17 hours at 4° C. The tissues reacted with the primary antibodies were washed three times with PBS for 5 minutes each, then caused to react with a secondary antibody (a Mouse on Mouse (M. O. M.) Elite Peroxidase Kit (Vector Laboratories, # PK-2200) for the anti-E-Cadherin antibody and the anti-Cytokeratin antibody, and a VECTASTAIN Elite ABC Rabbit IgG Kit (Vector Laboratories, # PK-6101) for the anti-Fibronectin antibody and the anti-Vimentin antibody) for 30 minutes at room temperature, then washed three times with PBS for 5 minutes each, and then subjected to an ABC reaction for 30 minutes at room temperature according to the manufacturer's protocol. After washing the tissues three times with PBS for 5 minutes each, color development was caused for 3 minutes at room temperature using an ImmPACT AMEC Red Peroxidase (HRP) Substrate (Vector Laboratories, # SK-4285). The color-developed tissues were stained by using a New hematoxylin Type M (MUTO PURE CHEMICALS CO., LTD., # 30141), and then stood still in flowing water for 3 minutes, and treated with 70% ethanol for 1 minute, with 80% ethanol for 1 minute, with 90% ethanol for 1 minute, twice with 100% ethanol for 1 minute each, and three times with xylene for 5 minutes each, and mounted with the use of Marinol. After drying for 15 minutes or more at room temperature, observation was conducted. […]

In a further data set the test system is RPE cells (ARPE-19). Description: Focus (drusen-like structure) formation suppression in EMT induction model of RPE cells. Type of data set: cell-based, human. The conditions noted are these: for Suppression of drusen-like structure formed in the RPE cell model: FIG. 35 to 39; for IC50: Homo sapiens. As to the method: RPE cells (ARPE-19) were seeded on a plate, and incubated for 5 days at 37° C. […] As a control of EMT induction, a sample to which a compound to be assessed (test drug) is not added was used. After 48 hours from EMT induction, the cells were fixed by treating with a 4% paraformaldehyde solution for 30 minutes at room temperature, and then washed three times with PBS. The cells were treated with a 0.2% Triton-X/PBS solution for 5 minutes, and washed three times with PBS. […] The fluorescent-stained cells were imaged by using an Image Express Micro (available from Molecular Devices), and digitized by using a MetaXpress2.0 (available from Molecular Devices). By analyzing the degree of formation of Focus (Focus level) from the numerical data, a Focus formation suppressing rate was calculated according to the following Formula 1 on the basis of the numerical value at the time of no addition of a compound, and the EMT suppressive effect in each compound was verified. The degree of formation of Focus (Focus level) was determined according to the number and the volume of Focus as indexes.
IC50 in the table was calculated using the following Formula 2.
A: Higher concentration sandwiching 50%
B: Lower concentration sandwiching 50%
C: Inhibition rate at lower concentration sandwiching 50%
D: Inhibition rate at higher concentration sandwiching 50%
RPE cells (ARPE-19) were seeded on a plate, and incubated for 5 days at 37° C. […] As a control of EMT induction, a sample to which a compound to be assessed (test drug) is not added was used. The cells after observation were fixed by treating with a 4% paraformaldehyde solution for 30 minutes at room temperature, and then washed three times with PBS. The cells were treated with a 0.2% Triton-X/PBS solution for 5 minutes, and washed three times with PBS. […] The fluorescent-stained cells were imaged by using an Image Express Micro (available from Molecular Devices), and digitized by using a MetaXpress2.0 (available from Molecular Devices). By analyzing the degree of formation of Focus from the numerical data, a Focus formation suppressing rate was calculated on the basis of the case without addition of a compound and the case without EMT induction, and the EMT suppressive effect in each compound was verified. […] After washing three times with methanol, the cells were dried for 3 hours at room temperature. The dried cells were observed under a microscope.

For data set [1] the following is noted: cited from earlier work.
Where [2] appears, read: Table 1, EMT-induced ARPE-19, compound added simultaneously, 48 hours, read-out: IC50 (Focus formation suppressing rate, EMT suppressive effect).
[3] abbreviates: Test example 7, EMT-induced ARPE-19, 48 hours, read-out: IC50 values in the drusen-like structure suppressing tests.
The mark [4] stands for this setting: Table 3, from the interview form and the package insert of each drug, read-out: Cmax.
Where [5] appears, read: quoted in Test examples 2-3, 2-4, 2-5, read-out: Cmax (as quoted in the VEGF test examples).

The IC50 is the concentration needed to halve the response being measured. One may read the Cmax as the maximum level reached in the sampled fluid or tissue.

Like-named read-outs stand apart in the source and are kept apart here.

Take `O=C(O)CCc1nc(-c2ccccc2)c(-c2ccccc2)o1` [Oxaprozin, oxaprozin]: in the data set with mouse, the “Formation of a drusen-like structure (HE staining)” value is recorded as “apparently suppressed”, the “Immunostaining of E-Cadherin in retinal epithelial cells” value was “strongly positive staining was observed between cells”, the “Immunostaining of Fibronectin” value is “the signal strength of staining was small” and the “Shape of retinal pigment epithelial cells” value was “cells keeping a cubic shape were abundantly observed”. Besides, in the data set on RPE cells (ARPE-19) (EMT-induced ARPE-19, 48 hours), the “Suppression of drusen-like structure formed in the RPE cell model” value is reported as “suppresses a drusen-like structure formed in the RPE cell model in a concentration-dependent manner”. Also, the IC50 in the data set with RPE cells (ARPE-19) (setting [2]) worked out at 61 µM. Further, the half-inhibitory concentration (IC50) in the data set on RPE cells (ARPE-19) (setting [3]) came out at 61 µM. Moreover, the Cmax in data set [1] (Alvo tablet Interview Form, repeated-dose administration, read-out: Cmax) was 341 µM. Further, the Cmax in data set [1] (setting [4]) is 341 µM. The Cmax in data set [1] (setting [5]) is 341 µM.
For `CC(C(=O)O)c1ccc2c(c1)CC(=O)c1ccccc1S2` (stereo not drawn) [Zaltoprofen, zaltoprofen], the “Formation of a drusen-like structure (HE staining)” value in the data set with mouse is “apparently suppressed”. In the data set on mouse, the “Immunostaining of E-Cadherin in retinal epithelial cells” value is reported as “strongly positive staining was observed between cells”. Also, the “Immunostaining of Fibronectin” value with mouse is reported as “the signal strength of staining was small”. Moreover, the “Shape of retinal pigment epithelial cells” value in the data set on mouse is given as “cells keeping a cubic shape were abundantly observed”. For the same compound, the “Suppression of drusen-like structure formed in the RPE cell model” value in the data set with RPE cells (ARPE-19) (EMT-induced ARPE-19, 48 hours) is given as “suppresses a drusen-like structure formed in the RPE cell model in a concentration-dependent manner”. The IC50 with RPE cells (ARPE-19) (setting [2]) and in the data set with RPE cells (ARPE-19) (setting [3]) was 16.5 µM each time. In addition, the Cmax in data set [1] (Pharmaceutical Interview Form, single-dose administration, read-out: Cmax) is 20.4 µM; in data set [1] (Soleton tablet 80 Interview Form, single-dose administration, depending on the kind of the additive, read-out: Cmax) it was 16.8 µM; in data set [1] (setting [4]) it was 20.4 µM; in data set [1] (setting [5]), 20.4 µM.
